Patent US20100222394A1, “METHOD FOR PRODUCING PYRAZOL-3-YL-BENZAMIDE DERIVATIVE” (priority 2007, published 2010)

Columns and labels:
[1] = target: recombinant human liver GK (Homo sapiens, UniProt P35557); experiment: biochemical; set-up: Emax: dose or concentration left out as unconfirmed
Source text: The glucokinase activity may be determined not by directly measuring glucose-6-phosphate but by measuring the level of Thio-NADH, which is produced when a reporter enzyme, glucose-6-phosphate dehydrogenase produces phosphogluconolactone from glucose-6-phosphate, and based on the level, the degree of glucokinase activity of the compound tested may be determined.
In this assay, used was a recombinant human liver GK, which was expressed by E. coli as a FLAG fusion protein therein and was purified by […] M2 AFFINITY GEL (Sigma).
69 μl of an assay buffer (25 mM Hepes Buffer/pH=7.2, 2 mM MgCl2, 1 mM ATP, 0.5 mM TNAD, 1 mM dithiothreitol) was put into the plate, and 1 μl of a DMSO solution of the compound or DMSO alone as a control was added thereto. Next, 20 μl of an enzyme mixture (FLAG-GK, 20 U/ml G6PDH) cooled in ice was added to it, and 10 μl of a substrate, 25 mM glucose was added to it, and the reaction was initiated (final glucose concentration=2.5 mM).
The OD level of the DMSO control was set as 100%; and the OD level of the test compound at different concentrations was determined. From the OD level at each concentration, Emax (%) and EC50 (μM) were computed and used as the index of the GK-activating potency of the compound.

[2] = Thermogravimetric analysis; type: physicochemical; details: flow of nitrogen, heating rate 10° C./min
Experimental: (§1) A Perkin Elmer model TG 7 or equivalent instrument is used. Experiments are performed under a flow of nitrogen and using a heating rate 10° C./min to a maximum temperature of 500° C. Approximately 10 mg of sample is added to the platinum pan. Weight/temperature data are collected automatically by the instrument. Compound 9 doesn't show obvious weight loss until 180° C.

[3] = Solid-state properties of the crystal compared to the amorphous form (from thermogravimetric analysis and X-ray powder diffraction); type: physicochemical; details: compared to amorphous form of the free benzamide of patent document 1
Experimental: as §1
Obtain the X-ray diffraction pattern of a finely-powdered, randomly orientated sample, using copper K alpha X-radiation from 4 to 40 theta.
Bruker powder X-ray diffractometer D8ADVANCE (at 2 kW) (bull car ray X id bull car ray X id Co., Ltd.) is used, and a powder X-ray diffraction experiment was done.

Chain of recombinant human liver GK (P35557 1-466 isoform P35557-2): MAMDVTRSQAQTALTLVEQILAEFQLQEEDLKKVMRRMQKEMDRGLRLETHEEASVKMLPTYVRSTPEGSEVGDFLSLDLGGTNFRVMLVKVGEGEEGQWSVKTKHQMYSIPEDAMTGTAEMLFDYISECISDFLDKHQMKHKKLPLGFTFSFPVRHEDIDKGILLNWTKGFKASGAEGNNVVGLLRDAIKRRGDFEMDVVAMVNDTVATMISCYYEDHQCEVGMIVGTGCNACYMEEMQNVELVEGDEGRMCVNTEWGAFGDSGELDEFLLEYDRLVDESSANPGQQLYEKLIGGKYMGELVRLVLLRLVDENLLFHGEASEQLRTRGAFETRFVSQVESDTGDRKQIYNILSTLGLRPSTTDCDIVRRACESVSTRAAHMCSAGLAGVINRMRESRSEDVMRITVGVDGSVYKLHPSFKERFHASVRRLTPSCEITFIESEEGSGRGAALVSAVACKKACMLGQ

EC50 [1]: 30 nM | Emax [1]: 828% | temperature until which no obvious weight loss is shown [2]: ≥ 180 °C | hygroscopicity [3]: less hygroscopicity | physical stability [3]: stability physically
SMILES: CCS(=O)(=O)c1ccc(Oc2cc(O[C@@H](C)CO)cc(C(=O)Nc3ccn(C)n3)c2)cn1.CS(=O)(=O)O [3-(6-ethanesulfonylpyridin-3-yloxy)-5-((1S)-2-hydroxy-1-methyl-ethoxy)-N-(1-methyl-1H-pyrazol-3-yl)benzamide methanesulfonate]
